# Results taken from US5854388A, “Angiotensin IV peptides and receptor” (Washington State University Research Foundation, priority 1994, dated 1998).
# Entries after “also recorded” stand apart in the source; their conditions may differ. Where two headings read alike, the source gives them in different places. Positions of bridges follow the written chain, without caps; N, C: chain ends. Non-standard residues stand in square brackets, D forms with d. Residues, ends and D or L forms follow the SMILES beside them. No end group written: not given here. *: point of attachment. Ileψ(thiazoline)Cys = CC[C@H](C)[C@H](N)C1=N[C@H](C(=O)*)CS1; NMeI = CC[C@H](C)[C@H](NC)C(=O)O; dOrn = NCCC[C@@H](N)C(=O)O; Nle = CCCC[C@H](N)C(=O)O; Orn = NCCC[C@H](N)C(=O)O; GABA = NCCCC(=O)O
# Legend:
# [1] = biological target: T1, AT4 receptor (Bos taurus, UniProt F1N1Q8); test: 125I-AIV binding and competition, bovine adrenal cortical membranes
# T1 sequence (F1N1Q8 1-1022): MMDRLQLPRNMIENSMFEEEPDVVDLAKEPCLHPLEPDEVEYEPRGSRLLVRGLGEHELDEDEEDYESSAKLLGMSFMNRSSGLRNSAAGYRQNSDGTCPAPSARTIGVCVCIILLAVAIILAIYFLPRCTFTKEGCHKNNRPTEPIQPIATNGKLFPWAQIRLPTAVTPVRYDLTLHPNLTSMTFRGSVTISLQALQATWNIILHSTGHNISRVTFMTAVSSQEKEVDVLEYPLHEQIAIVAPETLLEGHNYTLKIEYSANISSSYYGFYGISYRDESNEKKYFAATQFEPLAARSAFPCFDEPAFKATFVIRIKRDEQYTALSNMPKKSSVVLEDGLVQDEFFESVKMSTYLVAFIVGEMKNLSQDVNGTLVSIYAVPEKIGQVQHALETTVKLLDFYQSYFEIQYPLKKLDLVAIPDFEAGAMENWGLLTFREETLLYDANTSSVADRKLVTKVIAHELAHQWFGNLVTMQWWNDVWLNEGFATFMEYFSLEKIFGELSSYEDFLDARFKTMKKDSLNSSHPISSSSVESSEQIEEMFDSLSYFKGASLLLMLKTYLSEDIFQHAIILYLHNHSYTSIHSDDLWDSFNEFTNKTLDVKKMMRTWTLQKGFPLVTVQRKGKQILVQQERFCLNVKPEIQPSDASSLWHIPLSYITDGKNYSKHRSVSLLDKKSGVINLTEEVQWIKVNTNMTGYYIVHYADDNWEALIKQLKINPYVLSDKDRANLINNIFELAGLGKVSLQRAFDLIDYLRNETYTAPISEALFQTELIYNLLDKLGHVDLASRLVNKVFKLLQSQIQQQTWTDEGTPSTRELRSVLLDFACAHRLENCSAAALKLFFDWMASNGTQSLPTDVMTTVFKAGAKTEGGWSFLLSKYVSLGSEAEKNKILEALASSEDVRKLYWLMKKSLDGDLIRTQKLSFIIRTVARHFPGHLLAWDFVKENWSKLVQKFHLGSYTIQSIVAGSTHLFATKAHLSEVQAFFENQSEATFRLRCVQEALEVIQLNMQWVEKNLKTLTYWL
# [2] = tested on: rat kidney; test: Renal cortical blood flow (laser doppler) and arterial pressure after infusion into the renal artery; format: in vivo
# [3] = biological target: T2, AT1 receptor (AII receptor) (Bos taurus, UniProt P25104); format: binding, bovine; details: competition
# T2 construct: from tissue; host or cells: bovine adrenal cortex membranes
# T2 sequence (P25104 1-359): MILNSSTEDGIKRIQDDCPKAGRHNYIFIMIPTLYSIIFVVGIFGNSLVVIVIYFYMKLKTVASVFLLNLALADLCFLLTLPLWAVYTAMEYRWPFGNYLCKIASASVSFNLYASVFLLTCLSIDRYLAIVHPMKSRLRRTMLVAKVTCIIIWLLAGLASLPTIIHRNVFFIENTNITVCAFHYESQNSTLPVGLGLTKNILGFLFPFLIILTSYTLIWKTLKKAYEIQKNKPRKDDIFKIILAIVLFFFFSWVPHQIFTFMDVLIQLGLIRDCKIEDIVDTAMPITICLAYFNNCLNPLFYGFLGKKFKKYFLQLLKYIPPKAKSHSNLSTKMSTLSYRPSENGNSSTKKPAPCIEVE
# [4] = biological target: T1, AT4 receptor; test: 125I-AIV binding and competition, coronary venular endothelial cell (CVEC) membranes; parameters: species or system bovine
# [5] = biological target: T1, AT4 receptor; test: 125I-AIV binding and competition, solubilized bovine adrenal cortical receptor
# [6] = arterial and venous blood in man; cited from earlier work
# [7] = Metabolism by rat kidney membranes / homogenates
# [8] = read-out: 125I-AIV Binding (Ki)
compound,measurement,setting,value
F1 YIHPF (FYIHPF),decrease in binding affinity relative to AIV,[1],4 fold
NleYIHPF ([Nle]YIHPF),maximum increase in renal blood flow,[2]; 0.05 pmole,19%
same,maximum increase in renal blood flow,[2]; 0.1 pmole,19%
same,maximum increase in renal blood flow,[2]; 10 pmole,21%
same,increase in renal blood flow,[2]; 100 pmole,30%
same,effect on arterial blood pressure (in words),"[2]; rat, in vivo",no effect on mean arterial pressure
same,agonist / antagonist activity (in words),"[2]; renal blood flow response compared to AIV, listed as Nle1 -AIV",only a partial agonist
same,agonist / antagonist activity (in words),"[2]; renal blood flow response compared to AIV, listed as Nle1 YIHPF",partial agonist
VF2 IHPF (VFIHPF),binding affinity for the AT4 receptor (in words),[1],very low affinity
"CC[C@H](C)[C@H](NC(=O)[C@@H](N)Cc1ccc(O)cc1)C(=O)N[C@@H](Cc1c[nH]cn1)C(=O)N1CCC[C@H]1C(=O)N[C@@H](Cc1ccccc1)C(=O)O [AII(4-8), YIHPF] (H-YIHPF-OH; N-terminus and C-terminus assumed)",decrease in binding affinity relative to AIV,[1],1000 fold
"CCCCc1nc(Cl)c(CO)n1Cc1ccc(-c2ccccc2-c2nn[nH]n2)cc1 [DuP 753, reference compound]",Ki,[3],0.031 µM
same,Ki,[4]; unit inferred,> 100 µM
same,Ki,[5],> 100 µM
same,Ki,[1]; [8],> 100 µM
V1 Y2 I3 H4 P5 F6 H7 L8 (VYIHPFHL) [AI(3-10)],decrease in binding affinity relative to AIV,[1],2 fold
"CC[C@H](C)[C@H](NC)C(=O)N[C@@H](Cc1ccc(O)cc1)C(=O)N[C@H](C(=O)N[C@@H](Cc1c[nH]cn1)C(=O)N1CCC[C@H]1C(=O)N[C@@H](Cc1ccccc1)C(=O)O)[C@@H](C)CC [CH3 -I1 YIHPF, N-methyl-Ile1 YIHPF] (H-[NMeI]YIHPF-OH)",decrease in affinity relative to I1YIHPF,[1]; N-methylation of Ile1,67 fold
"VPIHYF [Phe2 Tyr6 AIV, positions of the Phe and Tyr residues in AIV reversed]",binding affinity for the AT4 receptor (in words),[1],very low binding affinity
"CC[C@H](C)[C@H](N)C1=N[C@H](C(=O)N[C@@H](CC(C)C)C(=O)N[C@H](CCC(=O)O)C(=O)N[C@H](C(=O)N[C@H]2CCCCNC(=O)[C@H](CC(N)=O)NC(=O)[C@@H](CC(=O)O)NC(=O)[C@H](Cc3cnc[nH]3)NC(=O)[C@@H](Cc3ccccc3)NC(=O)[C@H]([C@@H](C)CC)NC(=O)[C@@H](CCCN)NC2=O)[C@@H](C)CC)CS1 [Bacitracin, ICLEIKOIFHDD, reference compound] ({Ileψ(thiazoline)Cys}-L[dE]IK[dOrn]I[dF]H[dD]N; lactam 4-C)",effect on binding of AIV ligand to the AT4 receptor,[1],inhibited
DYIHPF,Kd,[1],> 1 µM
same,binding affinity for the AT4 receptor (in words),[1],virtually no affinity
VYIH,decrease in binding relative to VYIHP,[1],21 fold
same,Ki,[1]; read-out: Ki,> 0.5 µM
IYIHPF [I1 YIHPF],binding affinity for the AT4 receptor (in words),[1],only a slight change (an increase) in binding affinity; also recorded: nearly the same binding affinity
VYIHP [des Phe6 -AIV],increase in Ki (decrease in affinity) compared with AIV,[4],7 fold
same,Ki,"[4]; competition of 0.5 nM 125I-AIV, read-out: Ki",0.0073 ± 0.0012 µM
same,binding to solubilized AT4 receptor (in words),[5]; listed as VYIHP,retained AT4 receptor binding activity
same,binding to solubilized AT4 receptor (in words),[5]; listed as desPhe6 -AIV,still retained AIV binding activity
same,binding affinity for the AT4 receptor (in words),[1],did not alter binding significantly
same,binding affinity for the AT4 receptor (in words),[1]; listed as V1 Y2 I3 H4 P5,does not alter binding significantly
GABA-YIHPF ([GABA]YIHPF),decrease in binding affinity relative to AIV,[1],250 fold
OrnYIHPF ([Orn]YIHPF),binding affinity for the AT4 receptor (in words),[1],higher binding affinity than AIV
"CC[C@H](C)[C@H](NC(=O)[C@@H](N)Cc1ccc(O)cc1)C(=O)N[C@@H](Cc1cnc[nH]1)C(=O)N1CCC[C@H]1C(=O)N[C@@H](Cc1ccccc1)C(=O)O [AII(4-8), YIHPF] (H-YIHPF-OH)",Ki,[4]; competition of 0.5 nM 125I-AIV,0.253 ± 0.0891 µM
same,half-lives,[6],2.4 min
same,Ki,[5],> 1 µM
same,Ki,[1]; [8],> 1 µM
VYIHPI [VYIHPI6],binding affinity for the AT4 receptor (in words),[1],higher affinity than the parent VYIHPF; also recorded: higher binding affinity for the AT4 receptor than AIV
V1 Y2 I3 H4 P5 F6 H7 (VYIHPFH) [AI(3-9)],binding affinity for the AT4 receptor (in words),[1],did not alter binding significantly
same,binding affinity for the AT4 receptor (in words),[1]; listed as V1 Y2 I3 H4 P5 F6 H7,does not alter binding
"^+ H3 N-Val(CH2 NH)Tyr-Val(CH2 NH)-His-Pro-Phe-COO^- (H-VYVHPF-OH; also: reduced CH2-NH bonds: Val1-Tyr2, Val3-His4) [Val1 Val3 AIV]",Ki,[5]; read-out: Ki,0.00129 µM
same,agonist / antagonist activity (in words),"[2]; rat, in vivo",potent antagonist of AT4 receptor activity
same,effect of preinfusion on blood flow response to another ligand,"[2]; rat, in vivo",completely blocks Lys^1 AIV-induced increases in blood flow
same,effect on arterial blood pressure (in words),"[2]; rat, in vivo",did not alter blood pressure or renal blood flow
same,effect on renal blood flow (in words),"[2]; rat, in vivo",did not alter blood pressure or renal blood flow
same,binding affinity for the AT4 receptor (in words),[1],affinity equal to or better than VYIHPF; also recorded: equal or better affinity than AIV
same,stability on exposure to rat kidney (in words),[7],totally resistant to enzymatic degradation
same,stability on exposure to rat kidney (in words),[7]; listed as divalinal AIV,enhanced metabolic stability
same,remaining intact,"[7]; rat kidney membranes, 4 hr, room temperature",100%
PYIHPF,decrease in binding affinity relative to AIV,[1],8 fold
KYIHPI [KYIHPI6],binding affinity for the AT4 receptor (in words),[1],lower affinity than the parent KYIHPF6
same,binding affinity for the AT4 receptor (in words),[1]; listed as Lys1 Ile6 -AIV,lower affinity than Lys1 -AIV
V[D-Y2 ]IHPF [D-Y2 AIV],Ki,[5]; read-out: Ki,0.416 µM
same,binding affinity for the AT4 receptor (in words),[1],very low affinity; also recorded: low binding affinity
